The values that follow come from patent US20130029983A1, “AMINOTHIENOPYRIDAZINE INHIBITORS OF TAU ASSEMBLY” (priority 2009, published 2013).

The term IC50 denotes the midpoint of a concentration-inhibition curve.

Where two headings read alike, the source gives them in different places.

The target in assay [1] is T1, K18PL tau (Homo sapiens, UniProt P10636, P618L).
T1 construct: (K18PL; amino acids 244-369); made in house
Put plainly: K18PL tau centrifugation (sedimentation) assay, SDS-PAGE densitometry. The conditions noted are these: K18PL tau centrifugation assay. It is filed as biochemical. As for the experimental part: The determination of compound-induced effects on the amount of tau that remains soluble upon centrifugation, and EM visualization of tau species following incubation with test compounds, were as previously described (Crowe, A., Ballatore, C., Hyde, E., Trojanowski, J. Q., and Lee, V. M. Y. (2007) Biochemical and Biophysical Research Communications 358, 1-6).
(§1) The solubility of test compounds in the sodium acetate buffer used for subsequent fibrillization reactions was determined by turbidimetric measurements. Compounds were then evaluated in a heparin-induced tau assembly assay, in which the fibrillization of the truncated K18 tau fragment (comprised of four MT-binding repeats) bearing the P301L mutation (K18PL) found in FTDP-17, was monitored by thioflavine-T (ThT) binding and fluorescence (FIG. 3A). (Crowe, A.; et al., Identification of aminothienopyridazine inhibitors of tau assembly by quantitative high-throughput screening. Biochemistry 2009, 48, 7732-45.) The inhibitory activity of test compounds was then confirmed with an orthogonal sedimentation assay in which compound-treated fibrillizing mixtures were centrifuged and quantitation of K18PL tau in the soluble and insoluble fraction was performed by densitometric analyses of SDS-PAGE (FIG. 3B). […] Thus, the tau fibrillization assay was repeated in which both DMSO- and compound-treated mixtures were initially centrifuged for 30 min. prior to incubation (i.e., at time zero of the fibrillization reaction) to remove any pelletable material.

Assay [2] deals with T1, K18PL tau. Put plainly: Heparin-induced K18PL tau fibrillization assay monitored by ThT fluorescence. It is filed as biochemical. Conditions: for inhibition at 80 µM / Tau ThT Assay % Inhib.: highest tested concentration (80 μM); for inhibition at 80 µM: read-out: Tau ThT Assay % Inhib.; for IC50 / Tau ThT Assay Log IC50: logarithm of IC50, K18PL tau ThT fluorescence inhibition; for IC50: read-out: Tau ThT Assay Log IC50 (converted). As for the experimental part:
Tau fibril formation reactions were performed essentially as described (Crowe, A., Ballatore, C., Hyde, E., Trojanowski, J. Q., and Lee, V. M. Y. (2007) Biochemical and Biophysical Research Communications 358, 1-6). K18PL (2 μl of a 30 μM stock that also contained 0.24 μM Alexa Red-labeled K18PL) was dispensed into black 1536-well plates (Grenier) using a solenoid-based dispenser. Following transfer of 23 nL of test compound or DMSO vehicle by a pin tool from compound library plates, 2 μl/well of 40 μM heparin in reagent buffer was dispensed and the plate was centrifuged for 15 s at 1000 rpm in a table-top centrifuge. The fibrillization reaction proceeded for 6 hours at 37° C. in a humidified incubator (Kalypsys).
K18PL fibril formation was quantified with a ThT assay as previously described (Crowe, A., Ballatore, C., Hyde, E., Trojanowski, J. Q., and Lee, V. M. Y. (2007) Biochemical and Biophysical Research Communications 358, 1-6). Briefly, 1 μl/well of 62.5 μM ThT (Sigma) in 100 mM glycine, pH 8.5 (12.5 μM final concentration) was dispensed into 1536-well plates after completion of the fibrillization reaction and incubated at room temperature for 1 hour. Plates were read on an Envision fluorescence plate reader with an excitation of 450 nm and an emission setting of 510 nm.
Compound effects on tau assembly were determined for the ThT and FP assays using the formula 1−(Fcompound− FDMSO)/( Fcontrol− FDMSO), where Fcontrol denotes the median plate fluorescence values (ThT assay) or mP values (FP assay) of the non-fibrillizing K18 KD control wells, FDMSO denotes the median value of the DMSO control wells, and Fcompound denotes the compound well values. The resulting values were multiplied by 100 to obtain the percent inhibition of tau fibril formation.
as §1

T1 sequence (P10636 561-686 P618L): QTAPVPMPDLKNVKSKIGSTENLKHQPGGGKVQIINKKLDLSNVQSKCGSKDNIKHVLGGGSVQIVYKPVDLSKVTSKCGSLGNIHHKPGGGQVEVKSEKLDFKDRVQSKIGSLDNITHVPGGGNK

As for `Nc1scc2c(C(=O)O)nn(-c3ccc(OC(F)(F)F)cc3)c(=O)c12` [CNDR-51370, 5-Amino-4-oxo-3-(4-(trifluoromethoxy)phenyl)-3,4-dihydrothieno[3,4-d]pyridazine-1-carboxylic acid], on K18PL tau [1] (Table 4), the “Tau Cent. Assay % Soluble” value was determined as 65%. In addition, at K18PL tau [2] (Table 4), the inhibition at 80 µM is 88% and the IC50 was 6.31 µM.

As for `CCOC(=O)c1nn(-c2ccc([N+](=O)[O-])cc2)c(=O)c2c(N)scc12` [CNDR-51352, Ethyl 5-amino-3-(4-nitrophenyl)-4-oxo-3,4-dihydrothieno[3,4-d]pyridazine-1-carboxylate], the “Tau Cent. Assay % Soluble” value on K18PL tau [1] (Table 4) was determined as 59%. On K18PL tau [2] (Table 4), the inhibition at 80 µM came to 69% and the IC50 is 50.1 µM.

For `CCOC(=O)c1nn(-c2ccc(N)cc2)c(=O)c2c(N)scc12` [CNDR-51355, Ethyl 5-amino-3-(4-aminophenyl)-4-oxo-3,4-dihydrothieno[3,4-d]pyridazine-1-carboxylate], on K18PL tau [1] (Table 4), the “Tau Cent. Assay % Soluble” value was 67%. In addition, on K18PL tau [2] (Table 4), the inhibition at 80 µM stood at 74% and the IC50 is 1.26 µM.

In the case of `CCOC(=O)c1nn(-c2ccc(C(C)C)cc2)c(=O)c2c(N)scc12` [CNDR-51347], on K18PL tau [1] (Table 4), the “Tau Cent. Assay % Soluble” value is given as 17%. The “Tau ThT Assay % Inhib.” value on K18PL tau [2] (Table 4) worked out at 8%.

As to `CCOC(=O)c1nn(-c2ccc(C)cc2C)c(=O)c2c(N)scc12` [CNDR-51434], the “Tau Cent. Assay % Soluble” value at K18PL tau [1] (Table 4) is 56%. In addition, on K18PL tau [2] (Table 4), the “Tau ThT Assay % Inhib.” value turned out to be 87% and the “Tau ThT Assay Log IC50” value is −5.7.

Consider `Nc1scc2c(C(=O)O)nn(-c3ccc(O)cc3)c(=O)c12` [CNDR-51374, 5-Amino-3-(4-hydroxyphenyl)-4-oxo-3,4-dihydrothieno[3,4-d]pyridazine-1-carboxylic acid], for which the “Tau Cent. Assay % Soluble” value on K18PL tau [1] (Table 4) turned out to be 70%. Moreover, at K18PL tau [2] (Table 4), the inhibition at 80 µM amounted to 84% and the “Tau ThT Assay Log IC50” value is reported as −5.4.

`CCOC(=O)c1nn(-c2ccc(Cl)cc2)c(=O)c2c(N)sc(Br)c12` [CNDR-51411, Ethyl 5-amino-7-bromo-3-(4-chlorophenyl)-4-oxo-3,4-dihydrothieno[3,4-d]pyridazine-1-carboxylate]: the “Tau Cent. Assay % Soluble” value on K18PL tau [1] (Table 4) was 62%. In addition, on K18PL tau [2] (Table 4), the inhibition at 80 µM was 92% and the “Tau ThT Assay Log IC50” value is recorded as −5.4.

As for `CC(C)NC(=O)c1nn(-c2ccc(OC(F)(F)F)cc2)c(=O)c2c(N)scc12` [CNDR-51375, 5-Amino-N-isopropyl-4-oxo-3-(4-(trifluoromethoxy)phenyl)-3,4-dihydrothieno[3,4-c]pyridazine-1-carboxamide], the “Tau Cent. Assay % Soluble” value at K18PL tau [1] (Table 4) was found to be 42%. The inhibition at 80 µM at K18PL tau [2] (Table 4) worked out at 67%.

For the compound `CCOC(=O)c1nn(-c2ccc(I)cc2)c(=O)c2c(N)scc12` [CNDR-51404, Ethyl 5-amino-3-(4-iodophenyl)-4-oxo-3,4-dihydrothieno[3,4-d]pyridazine-1-carboxylate], the “Tau Cent. Assay % Soluble” value at K18PL tau [1] (Table 4) is recorded as 63%. Further, at K18PL tau [2] (Table 4), the inhibition at 80 µM was determined as 89% and the IC50 is 2.51 µM.

As for `NNC(=O)c1nn(-c2ccc(Cl)cc2)c(=O)c2c(N)scc12` [CNDR-51378, 5-Amino-3-(4-chlorophenyl)-4-oxo-3,4-dihydrothieno[3,4-d]pyridazine-1-carbohydrazide], the “Tau Cent. Assay % Soluble” value at K18PL tau [1] (Table 4) is 77%. Further, on K18PL tau [2] (Table 4), the inhibition at 80 µM was found to be 93% and the IC50 was 3.16 µM.

As to `COC(=O)c1nn(-c2cccc(C(F)(F)F)c2)c(=O)c2c(N)scc12` [Compound 19], on K18PL tau [1] (Table 3), the “Tau Cent. Assay % Soluble” value came to 41%. At K18PL tau [2] (Table 3), the inhibition at 80 µM came to 66%. Moreover, on K18PL tau [2] (Table 3, NC = not calculated due to insufficient activity), the IC50 is 10 µM.

Take `CCOC(=O)c1nn(-c2ccc(OC(F)(F)F)cc2)c(=O)c2c(N)scc12` [CNDR-51369, Ethyl 5-amino-4-oxo-3-(4-(trifluoromethoxy)phenyl)-3,4-dihydrothieno[3,4-d]pyridazine-1-carboxylate]: the “Tau Cent. Assay % Soluble” value at K18PL tau [1] (Table 4) is recorded as 29%. Besides, on K18PL tau [2] (Table 4), the inhibition at 80 µM turned out to be 41% and the IC50 was 2 µM.

In the case of `CCOC(=O)c1nn(-c2ccccc2)c(=O)c2c(NC(C)=O)scc12` [Compound 9b], the “Tau Cent. Assay % Soluble” value on K18PL tau [1] (Table 3) came to 11%. The inhibition at 80 µM on K18PL tau [2] (Table 3) was found to be 27%.

Turning to `CCOC(=O)c1nn(-c2ccccc2C)c(=O)c2c(N)scc12` [CNDR-51424, Ethyl 5-amino-4-oxo-3-(o-tolyl)-3,4-dihydrothieno[3,4-d]pyridazine-1-carboxylate], the “Tau Cent. Assay % Soluble” value at K18PL tau [1] (Table 4) was determined as 58%. Moreover, at K18PL tau [2] (Table 4), the inhibition at 80 µM was 82% and the IC50 was 1.26 µM.

In the case of `CCOC(=O)c1nn(-c2ccc(Cl)cc2)c(=O)c2c(NC)scc12` [CNDR-51360, Ethyl 3-(4-chlorophenyl)-5-(methylamino)-4-oxo-3,4-dihydrothieno[3,4-d]pyridazine-1-carboxylate], the “Tau Cent. Assay % Soluble” value at K18PL tau [1] (Table 4) was 51%. Besides, at K18PL tau [2] (Table 4), the inhibition at 80 µM was 39% and the IC50 was 5.01 µM.

Consider `Nc1scc2c(C(=O)O)nn(-c3ccc(F)cc3)c(=O)c12` [CNDR-51395, 5-Amino-3-(4-fluorophenyl)-4-oxo-3,4-dihydrothieno[3,4-d]pyridazine-1-carboxylic acid], for which, at K18PL tau [1] (Table 4), the “Tau Cent. Assay % Soluble” value was 83%. For the same compound, on K18PL tau [2] (Table 4), the inhibition at 80 µM turned out to be 84% and the “Tau ThT Assay Log IC50” value is −5.7.

For `CCOC(=O)c1nn(-c2ccc(F)cc2)c(=O)c2c(N)scc12` [CNDR-51394, Ethyl 5-amino-3-(4-fluorophenyl)-4-oxo-3,4-dihydrothieno[3,4-d]pyridazine-1-carboxylate], the “Tau Cent. Assay % Soluble” value at K18PL tau [1] (Table 4) is listed as 63%. Besides, at K18PL tau [2] (Table 4), the inhibition at 80 µM was 77% and the “Tau ThT Assay Log IC50” value is given as −6.0.

Regarding `CCOC(=O)c1nn(-c2ccc(Cl)cc2)c(=O)c2c(N)sc(Cl)c12` [CNDR-51393, Ethyl 5-amino-7-chloro-3-(4-chlorophenyl)-4-oxo-3,4-dihydrothieno[3,4-d]pyridazine-1-carboxylate], the “Tau Cent. Assay % Soluble” value on K18PL tau [1] (Table 4) is 65%. For the same compound, on K18PL tau [2] (Table 4), the inhibition at 80 µM is 88% and the “Tau ThT Assay Log IC50” value was −5.7.

As to `Nc1scc2c(-c3ccccc3)nn(-c3ccc(Cl)cc3)c(=O)c12` [CNDR-51405], on K18PL tau [1] (Table 4), the “Tau Cent. Assay % Soluble” value stood at 44%. On K18PL tau [2] (Table 4), the “Tau ThT Assay % Inhib.” value is 85% and the “Tau ThT Assay Log IC50” value is given as −6.0.

Regarding `CCN(CC)C(=O)c1nn(-c2ccc(OC)cc2)c(=O)c2c(N)scc12` [CNDR-51443, 5-Amino-N,N-diethyl-3-(4-methoxyphenyl)-4-oxo-3,4-dihydrothieno[3,4-d]pyridazine-1-carboxamide], the “Tau Cent. Assay % Soluble” value at K18PL tau [1] (Table 4) came to 59%. At K18PL tau [2] (Table 4), the inhibition at 80 µM turned out to be 75% and the IC50 was 7.94 µM.

For the compound `CCOC(=O)c1nn(-c2cccc(Cl)c2)c(=O)c2c(N)scc12` [CNDR-51387], the “Tau Cent. Assay % Soluble” value at K18PL tau [1] (Table 4) came out at 71%. Further, at K18PL tau [2] (Table 4), the “Tau ThT Assay % Inhib.” value came out at 90% and the “Tau ThT Assay Log IC50” value is on record as −5.7.

For the compound `CC(C)NC(=O)c1nn(-c2cccc(Cl)c2)c(=O)c2c(N)scc12` [CNDR-51391, 5-Amino-3-(3-chlorophenyl)-N-isopropyl-4-oxo-3,4-dihydrothieno[3,4-d]pyridazine-1-carboxamide], on K18PL tau [1] (Table 4), the “Tau Cent. Assay % Soluble” value stood at 62%. At K18PL tau [2] (Table 4), the inhibition at 80 µM stood at 83% and the IC50 is 1.26 µM.

For the compound `Nc1scc2c(C(=O)NCCO)nn(-c3ccc(Cl)cc3)c(=O)c12` [CNDR-51433, 5-Amino-3-(4-chlorophenyl)-N-(2-hydroxyethyl)-4-oxo-3,4-dihydrothieno[3,4-d]pyridazine-1-carboxamide], the “Tau Cent. Assay % Soluble” value at K18PL tau [1] (Table 4) is 77%. For the same compound, at K18PL tau [2] (Table 4), the inhibition at 80 µM came to 82% and the IC50 was 3.98 µM.
